Data reported in patent US20020026053A1, “Novel 3-(substituted) -2- indolinones compounds and use thereof as inhibitors of protein kinase activity” (priority 1997, published 2002).

Target: T1, Met receptor (EGFR/Met chimeric cells, EMR) (Homo sapiens, UniProt P08581)
T1 construct: expressed in transfected cells; the other entry of the earlier key: EGFR (P00533, Epidermal growth factor receptor)
Experiment: Met Autophosphorylation Assay
Assay type: biochemical
Procedure: Met Autophosphorylation Assay
This assay determines Met tyrosine kinase activity by analyzing Met protein tyrosine kinase levels on the Met receptor.
a. HNTG (5× stock solution): Dissolve 23.83 g HEPES and 43.83 g NaCl in about 350 ml dH2O. Adjust pH to 7.2 with HCl or NaOH, add 500 ml glycerol and 10 ml Triton X-100, mix, add dH2O to 1 L total volume. To make 1 L of 1× working solution add 200 ml 5× stock solution to 800 ml dH2O, check and adjust pH as necessary, store at 4° C.
b. PBS (Dulbecco's Phosphate-Buffered Saline), Gibco Cat. # 450-1300EB (1× solution).
c. Blocking Buffer: in 500 ml dH2O place 100 g BSA, 12.1 g Tris-pH7.5, 58.44 g NaCl and 10 ml Tween-20, dilute to 1 L total volume.
d. Kinase Buffer: To 500 ml dH2O add 12.1 g TRIS (pH 7.2), 58.4 g NaCl, 40.7 g MgCl2 and 1.9 g EGTA; bring to 1 L total volume with dH2O.
e. PMSF (Phenylmethylsulfonyl fluoride), Sigma Cat. # P-7626, to 435.5 mg, add 100% ethanol to 25 ml total volume, vortex.
f. ATP (Bacterial Source), Sigma Cat. # A-7699, store powder at −20° C.; to make up solution for use, dissolve 3.31 mg in 1 ml dH2O.
g. RC-20H HRPO Conjugated Anti-Phosphotyrosine, Transduction Laboratories Cat. # E120H.
h. Pierce 1-Step Turbo™ B-ELISA (3,3′,5,5′-tetramethylbenzidine, Pierce Cat. # 34022.
i. H2SO4, add 1 ml conc.(18 N) to 35 ml dH2O.
j. TRIS HCL, Fischer Cat. # BP152-5; to 121.14 g of material, add 600 ml MilliQ H2O, adjust pH to 7.5 (or 7.2) with HCl, bring volume to 1 L with MilliQ H2O.
k. NaCl, Fischer Cat. # S271-10, make up 5M solution.
m. Na3VO4, Fischer Cat. # S454-50, to 1.8 g material add 80 ml MilliQ H2O, adjust pH to 10.0 with HCl or NaOH, boil in microwave, cool, check pH, repeat procedure until pH stable at 10.0, add MilliQ H2O to 100 ml total volume, make 1 ml aliquots and store at −80° C.
n. MgCl2, Fischer Cat. # M33-500, make up 1M solution.
o. HEPES, Fischer Cat. # BP310-500, to 200 ml MilliQ H2O, add 59.6 g material, adjust pH to 7.5, bring volume to 250 ml total, sterile filter.
p. Albumin, Bovine (BSA), Sigma Cat. # A-4503, to 30 grams material add sterile distilled water to make total volume of 300 ml, store at 4° C.
q. TBST Buffer: to approx. 900 ml dH2O in a 1 L graduated cylinder add 6.057 g TRIS and 8.766 g NaCl, when dissolved, adjust pH to 7.2 with HCl, add 1.0 ml Triton X-100 and bring to 1 L total volume with dH2O.
r. Goat Affinity purified antibody Rabbit IgG (whole molecule), Cappel Cat. # 55641.
s. Anti h-Met (C-28) rabbit polyclonal IgG antibody, Santa Cruz Chemical Cat. # SC-161.
t. Transiently Transfected EGFR/Met chimeric cells (EMR) (Komada, et al., Oncogene, 8:2381-2390 (1993).
u. Sodium Carbonate Buffer, ([…], Fischer Cat. # S495) to 10.6 g material add 800 ml MilliQ H2O, when dissolved adjust pH to 9.6 with NaOH, bring up to 1 L total volume with MilliQ H2O, filter, store at 4° C.
All of the following steps are conducted at room temperature unless it is specifically indicated otherwise. All ELISA plate washing is by rinsing 4× with TBST.
This procedure can be performed the night before or immediately prior to the start of receptor capture.
1. Quick thaw lysates in a 37° C. waterbath with a swirling motion until the last crystals disappear.
2. Lyse cell pellet with 1× HNTG containing 1 mM PMSF. Use 3 ml of HNTG per 15 cm dish of cells. Add ½ the calculated HNTG volume, vortex the tube for 1 min., add the remaining amount of HNTG, vortex for another min.
3. Balance tubes, centrifuge at 10,000× g for 10 min at 4° C.
4. Pool supernatants, remove an aliquot for protein determination.
5. Quick freeze pooled sample in dry ice/ethanol bath. This step is performed regardless of whether lysate will be stored overnight or used immediately following protein determination.
6. Perform protein determination using standard bicinchoninic acid (BCA) method (BCA Assay Reagent Kit from Pierce Chemical Cat. # 23225).
1. Coat Corning 96 well ELISA plates with 5 μg per well Goat anti-Rabbit antibody in Carbonate Buffer for a total well volume of 50 μl. Store overnight at 4° C. […]

T1 sequence (P08581 with tags, fused parts or gaps): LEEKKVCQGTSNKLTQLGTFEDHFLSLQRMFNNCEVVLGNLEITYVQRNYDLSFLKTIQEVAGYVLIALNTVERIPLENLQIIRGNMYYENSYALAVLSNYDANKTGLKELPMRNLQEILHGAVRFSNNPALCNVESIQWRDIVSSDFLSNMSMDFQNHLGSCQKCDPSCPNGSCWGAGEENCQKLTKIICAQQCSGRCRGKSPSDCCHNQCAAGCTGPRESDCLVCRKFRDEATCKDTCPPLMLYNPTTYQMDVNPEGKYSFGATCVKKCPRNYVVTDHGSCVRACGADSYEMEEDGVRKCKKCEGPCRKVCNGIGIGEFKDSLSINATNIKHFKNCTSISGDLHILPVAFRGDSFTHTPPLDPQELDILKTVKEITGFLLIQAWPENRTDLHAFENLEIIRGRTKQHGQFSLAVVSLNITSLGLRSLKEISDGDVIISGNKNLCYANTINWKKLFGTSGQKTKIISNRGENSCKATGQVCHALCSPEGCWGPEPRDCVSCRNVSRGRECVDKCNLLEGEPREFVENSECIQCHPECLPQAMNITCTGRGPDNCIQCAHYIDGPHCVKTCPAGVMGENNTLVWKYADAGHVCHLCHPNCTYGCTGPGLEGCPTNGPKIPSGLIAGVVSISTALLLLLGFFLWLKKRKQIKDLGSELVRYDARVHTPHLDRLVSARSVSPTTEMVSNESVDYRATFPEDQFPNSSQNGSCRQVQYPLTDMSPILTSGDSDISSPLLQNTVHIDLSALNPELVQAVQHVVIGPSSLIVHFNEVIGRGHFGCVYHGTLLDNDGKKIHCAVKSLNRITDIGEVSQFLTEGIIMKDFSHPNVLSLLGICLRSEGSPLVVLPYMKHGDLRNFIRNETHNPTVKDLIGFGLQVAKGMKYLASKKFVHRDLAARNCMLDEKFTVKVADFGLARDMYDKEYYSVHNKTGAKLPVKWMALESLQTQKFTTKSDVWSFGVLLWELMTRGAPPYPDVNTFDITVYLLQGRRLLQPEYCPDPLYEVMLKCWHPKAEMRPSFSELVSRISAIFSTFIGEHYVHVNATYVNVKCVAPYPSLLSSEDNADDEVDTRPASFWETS

SMILES | Met Kinase % Inhibition (P.130)
Cc1c(Br)cc(Br)c2c1C(=Cc1cc3ccccc3nc1Cl)C(=O)N2 [10730/H08] | 57.8%
COC1CC(C=C2C(=O)Nc3c(Br)cc(Br)c(C)c32)C(OC)O1 (centres unmarked) [10730/H10] | 24.9%
Cc1cc(C=C2C(=O)Nc3c(Br)cc(Br)c(C)c32)oc1C [10730/H11] | 32.6%
CCn1c2ccccc2c2cc(C=C3C(=O)Nc4c(Br)cc(Br)c(C)c43)ccc21 [10731/H02] | 16.4%
Cc1cc2occ(C=C3C(=O)Nc4c(Br)cc(Br)c(C)c43)c(=O)c2cc1C [10731/H03] | 23.3%
C=C(C)C1CC=C(C=C2C(=O)Nc3c(Br)cc(Br)c(C)c32)CC1 (centres unmarked) [10731/H04] | 41.0%
Cc1c(Br)cc(Br)c2c1C(=Cc1coc3ccc(C(C)C)cc3c1=O)C(=O)N2 [10731/H05] | 32.2%
Cc1ccc2occ(C=C3C(=O)Nc4c(Br)cc(Br)c(C)c43)c(=O)c2c1 [10731/H06] | 17.2%
Cc1c(Br)cc(Br)c2c1C(=Cc1coc3ccc([N+](=O)[O-])cc3c1=O)C(=O)N2 [10731/H07] | 1.8%
Cc1c(Br)cc(Br)c2c1C(=Cc1c[nH]c(=O)[nH]c1=O)C(=O)N2 [10731/H08] | 10.9%
COc1ccc2[nH]cc(C=C3C(=O)Nc4c(Br)cc(Br)c(C)c43)c2c1 [10731/H09] | 12.8%
Cc1c(Br)cc(Br)c2c1C(=C1C(=O)N(C)c3ccccc31)C(=O)N2 [10731/H10] | 28.4%
Cc1c(Br)cc(Br)c2c1C(=CC(c1cccs1)C(F)(F)F)C(=O)N2 (centres unmarked) [10732/H02] | 56.8%
COc1c(C(C)C)cc(C=C2C(=O)Nc3c(Br)cc(Br)c(C)c32)cc1C(C)C [10732/H03] | 24.1%
Cc1c(Br)cc(Br)c2c1C(=Cc1cc(C(C)C)c(Oc3ccccc3)c(C(C)C)c1)C(=O)N2 [10732/H04] | 57.6%
COc1ccc(C=C2C(=O)Nc3c(Br)cc(Br)c(C)c32)cc1C(C)(C)C [10732/H05] | 13.3%

SMILES | Met Kinase % Inhibition (P.130)
Cc1c(Br)cc(Br)c2c1C(=Cc1ccc(OCc3ccccc3)c(C(C)(C)C)c1)C(=O)N2 [10732/H06] | 31.1%
COc1c(Br)cc(C=C2C(=O)Nc3c(Br)cc(Br)c(C)c32)cc1C(C)(C)C [10732/H07] | 26.7%
Cc1c(Br)cc(Br)c2c1C(=Cc1cc(Br)c(OCc3ccccc3)c(C(C)(C)C)c1)C(=O)N2 [10732/H08] | 38.7%
COc1c(Cl)cc(C=C2C(=O)Nc3c(Br)cc(Br)c(C)c32)cc1C(C)(C)C [10732/H09] | 49.8%
Cc1c(Br)cc(Br)c2c1C(=Cc1cc(Cl)c(OCc3ccccc3)c(C(C)(C)C)c1)C(=O)N2 [10732/H10] | 28.0%
COc1c(I)cc(C=C2C(=O)Nc3c(Br)cc(Br)c(C)c32)cc1C(C)(C)C [10732/H11] | 46.7%
Cc1c(Br)cc(Br)c2c1C(=Cc1cc(I)c(OCc3ccccc3)c(C(C)(C)C)c1)C(=O)N2 [10733/H02] | 38.9%
COc1c([N+](=O)[O-])cc(C=C2C(=O)Nc3c(Br)cc(Br)c(C)c32)cc1C(C)(C)C [10733/H03] | 0.6%
COc1c(C(C)(C)C)cc(C=C2C(=O)Nc3c(Br)cc(Br)c(C)c32)cc1C(C)(C)C [10733/H04] | 11.9%
Cc1c(Br)cc(Br)c2c1C(=Cc1cc(C(C)(C)C)c(OCc3ccccc3)c(C(C)(C)C)c1)C(=O)N2 [10733/H05] | 5.6%
COc1c(C)cc(C=C2C(=O)Nc3c(Br)cc(Br)c(C)c32)cc1C [10733/H06] | 18.4%
Cc1cc(C=C2C(=O)Nc3c(Br)cc(Br)c(C)c32)cc(C)c1OCc1ccccc1 [10733/H07] | −1.3%
COc1cc(Br)cc(C=C2C(=O)Nc3c(Br)cc(Br)c(C)c32)c1O [10733/H08] | 41.6%
Cc1c(Br)cc(Br)c2c1C(=Cc1cc(Br)ccc1O)C(=O)N2 [10733/H09] | 51.9%
Cc1c(Br)cc(Br)c2c1C(=Cc1cc([N+](=O)[O-])ccc1O)C(=O)N2 [10733/H10] | 26.5%
COc1c(O)ccc(C=C2C(=O)Nc3c(Br)cc(Br)c(C)c32)c1[N+](=O)[O-] [10733/H11] | 76.7%
